From patent US20250099405A1, “COMPOSITIONS, METHODS, AND DEVELOPMENT OF ARID4B INHIBITORS” (University of Kentucky Research Foundation, priority 2022, published 2025)

Experiments:
ERα signaling = test: qRT-PCR of ERα target genes after E2 treatment; type: cell-based; details: pre-treatment 5 and 10 μM
Description: The mRNA levels of GREB1, PGR, ARID4B, and MYD88 from MCF7 (A) and MCF7 Y537S cells (B) pre-treated with RWR-18 (0, 5 and 10 μM, 1 h) followed by +E2 treatment (10 nM, 4 h) were analyzed by qRT-PCR. Data are means±SEM from three biological replicate. ***, P<0.001. ns, not significant.
Consistent with knockout of ARID4B inhibited E2-induced and constitutive expression of ERα target genes, pre-treatment with RWR-18 (5 and 10 μM) abolished the induction of PGR and GREB1 genes by E2 in MCF7 and ZR75-1 cells (FIG. 18).

HA-ARID4BAC = target: T1, HA-ARID4BAC (Homo sapiens, UniProt Q4LE39, DEL571-624); test: CETSA in HEK-293T cells expressing the chromodomain deletion mutant; type: cell-based; details: 10 μM, 2 h
T1 construct: transfected with vector, full-length ARID4B or ARID4B deletion mutants; expressed in transfected cells; host or cells: HEK-293T
T1 sequence (Q4LE39 with tags, fused parts or gaps DEL571-624): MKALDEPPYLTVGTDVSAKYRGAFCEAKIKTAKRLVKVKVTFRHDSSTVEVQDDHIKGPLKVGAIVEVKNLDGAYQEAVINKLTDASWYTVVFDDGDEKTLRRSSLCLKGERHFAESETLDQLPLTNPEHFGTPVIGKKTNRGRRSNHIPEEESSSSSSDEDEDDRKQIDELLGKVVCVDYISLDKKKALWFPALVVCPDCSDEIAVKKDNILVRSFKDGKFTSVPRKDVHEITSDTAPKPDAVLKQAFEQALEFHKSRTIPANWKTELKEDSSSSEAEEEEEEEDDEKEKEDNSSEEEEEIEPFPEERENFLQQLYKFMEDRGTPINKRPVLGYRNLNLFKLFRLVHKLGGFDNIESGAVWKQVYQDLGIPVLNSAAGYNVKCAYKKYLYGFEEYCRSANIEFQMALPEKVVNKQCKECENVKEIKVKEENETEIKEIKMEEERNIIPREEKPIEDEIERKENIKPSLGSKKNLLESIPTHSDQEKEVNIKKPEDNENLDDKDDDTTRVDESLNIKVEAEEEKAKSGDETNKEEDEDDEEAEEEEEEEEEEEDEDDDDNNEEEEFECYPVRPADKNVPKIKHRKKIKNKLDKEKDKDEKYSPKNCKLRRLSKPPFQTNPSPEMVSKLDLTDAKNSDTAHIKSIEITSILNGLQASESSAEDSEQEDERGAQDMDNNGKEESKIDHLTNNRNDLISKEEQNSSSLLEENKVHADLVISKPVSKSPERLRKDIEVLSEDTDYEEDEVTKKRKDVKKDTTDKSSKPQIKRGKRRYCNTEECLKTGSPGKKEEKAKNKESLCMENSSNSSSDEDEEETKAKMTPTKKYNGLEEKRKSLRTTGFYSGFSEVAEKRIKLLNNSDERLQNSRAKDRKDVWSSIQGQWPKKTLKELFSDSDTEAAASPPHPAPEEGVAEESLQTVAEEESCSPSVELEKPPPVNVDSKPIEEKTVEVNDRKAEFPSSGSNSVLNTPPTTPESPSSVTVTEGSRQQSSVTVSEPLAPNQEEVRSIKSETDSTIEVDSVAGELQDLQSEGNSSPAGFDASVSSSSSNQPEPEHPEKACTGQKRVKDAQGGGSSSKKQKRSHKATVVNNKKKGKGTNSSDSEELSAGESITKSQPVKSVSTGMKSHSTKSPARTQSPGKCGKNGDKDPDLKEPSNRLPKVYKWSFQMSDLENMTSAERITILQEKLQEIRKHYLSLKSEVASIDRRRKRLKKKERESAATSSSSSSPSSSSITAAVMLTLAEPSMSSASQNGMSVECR
Description: (B-C) show cells expressing HA-ARID4B (C) or HA-ARID4BIC (D) treated or not with ARD150 (10 μM) for 2 h were used for CESTA. […] (D-E) show cells expressing HA-ARID4B (D) or Flag-ARID4A (E) treated or not with RWR-18 (10 μM) for 2 h were used for CESTA. […] Data are means±SEM from three experiments. *P<0.05, **P<0.01, ns, not significant.
Using CETSA (cellular thermal shift assay) to examine whether ARD150 or RWR-18 binds to ARID4B, MCF7 cells treated or not with ARD150 or RWR-18 for 2 h were collected, followed by heating at 46, 49, 52, 55, and 58° C. to denature and precipitate ARID4B protein, cell lysis, removal of cell debris and aggregates by centrifugation, and finally detection of remaining thermostable ARID4B protein by western blot. The ARID4B aggregation temperatures without ARD150 were determined to be 49-52° C., but shifted to 52-55° C. after treatment with ARD150 and even more so with RWR-18 (FIG. 15A-D). To determine whether ARD150 and RWR-18 targets the chromodomain of ARID4B, CESTA was performed using chromodomain deletion mutant (ARID4BAC). HEK-293T cells expressing HA-ARID4B or HA-ARID4BAC were treated or not with ARD150 (10 μM) for 2 h and processed for CESTA.

Structure (SMILES)	levels of ARID4B or MYD88 mRNA (ERα signaling)	induction of PGR and GREB1 genes by E2 (ERα signaling; MCF7 and ZR75-1 cells)	shift of aggregation temperatures of HA-ARID4BAC (chromodomain deletion mutant) (HA-ARID4BAC)
O=C(COc1ccc(OCc2ccccc2)cc1)NCCCN1CCOCC1 [RWR-18]	not affected	abolished	–
COc1ccc(C(=O)NCCCN2CCOCC2)cc1OC [ARD150]	–	–	no shift was observed
